Data as given in patent US6716809B1, “Mage-A3 peptides presented by HLA class molecules” (priority 1997, dated 2004).

System: CD4+ clone 436/B6.37 (B6/37)
Assay: IFN-γ/TNF production by CD4+ clone B6/37 (clone 37) stimulated with peptide- or protein-pulsed EBV-B cells
Format: cell-based, human
Details: for IFN-γ production by clone 37: autologous LB 1555 EBV-B cells; for IFN-γ production by clone B6/37, truncated peptides: autologous EBV-B cells pulsed with truncated peptides (FIG. 8)
Method: The microcultures that contained proliferating CD4^+ T cells were assessed around 35 days after the start of the culture for their capacity to produce TNF and/or IFN-γ when stimulated with autologous EBV-B cells pulsed with the His-MAGE-A3 protein. Autologous EBV-B cells (500,000/ml) were incubated for 18-20 hours at 37° C. in the presence of 20 μg/ml of His-MAGE-A3 protein, or Ovalbumin (Sigma) as a negative control. EBV-B cells referred to herein are B cells which were immortalized with Epstein Barr virus. The EBV-B cells were prepared according to art-standard procedures. Protein-pulsed EBV-B cells were washed and added at 5,000 per round-bottomed microwell to 2,500 CD4^+ T lymphocytes in 150 μl of complete Iscove's medium supplemented with L-glutamine, L-arginine, L-asparagine, 10% human serum and IL-2 (25 U/ml). After 18-20 hours, supernatants were harvested and assessed for TNF content by testing the cytotoxic effect of the supernatants on TNF-sensitive WEHI 164 clone 13 cells as previously described (Espevik and Nissen-Meyer, J. Immunol. Methods 95:99-105, 1986) in a MTT colorimetric assay as previously described (Hansen et al., J. Immunol. Methods 119:203-210, 1989; Traversari et al., Immunogenetics 35:145-152, 1992). IFN-γ production was measured using an ELISA assay developed in our laboratory (see below) with reagents from Medgenix Diagnostics-Biosource (Fleurus, Belgium). Inhibition with mAbs W6/32 (anti-HLA class I) or 2B6 (anti-HLA-DR) was performed by addition of a 1/20 dilution of ascites during the experiment. Cytokine secretion in response to autologous EBV-B cells pulsed with MAGE-A3 was considered significant if it was at least twofold above the background response of T cells to EBV-B cells pulsed with ovalbumin, and if it exceeded 500 pg of IFN-γ or 50 pg/ml of TNF per ml.
In order to identify the MAGE-A3 peptides recognized by these CD4^+ clones, 16 amino acid peptides, corresponding to parts of the MAGE-A3 protein sequence were synthesized, loaded on the autologous EBV-B cells and tested for recognition (FIGS. 4 and 5). Peptides were synthesized using F-moc for transient NH2-terminal protection and were characterized using mass spectrometry. […] Lyophilized synthetic peptides were dissolved in DMSO (Merck) and used at a final concentration of 500 μM, 50 μM or 5 μg/ml. EBV-B cells (5,000 per round-bottomed microwell) were incubated 2 hours at 37° C., 8% CO2 in the presence of the different peptides, the indicated concentrations representing the peptide concentration during the incubation step. CD4^+ clones were then added at 2,500 cells per well. Assay medium was Iscove's medium supplemented with L-glutamine, L-arginine, L-asparagine, 10% human serum and IL-2 (25 U/ml). After 18-20 hours, supernatants were harvested and assessed for TNF-α and/or IFN-γ secretion. IFN-γ production was measured using an ELISA test (20-4000 pg/ml) developed in the laboratory with reagents from Medgenix Diagnostics-Biosource (Fleurus, Belgium).
To further define the HLA-restriction element utilized by clone B6/37, additional EBV-B cell lines were used for peptide presentation as described above (FIG. 7).
Unlike HLA-class I-restricted peptides, class II-restricted peptides usually vary in length and tolerate extensions at both the amino and carboxy termini, because they are not fixed by their ends in the groove. It is therefore difficult to define precisely the length of the antigenic peptide. Therefore a large number of MAGE-A3 peptides were tested at different concentrations (Tables IV and V). […] 2500 cells of clone 37 were then cocultured for 20 h in round-bottomed microwells with 5000 peptide-pulsed cells. IFN-γ released in the supernatant of the cocultures was measured in an ELISA assay. The experiments were performed in triplicate.

[1] = peptide concentration 100 ng/ml
[2] = peptide concentration 300 ng/ml
[3] = peptide concentration 1000 ng/ml

**Q.** With AELVHFLLLKYRA (listed as Homo sapiens) as the substance, how does the “IFN-γ production by clone 37” value (peptide concentration 1 ng/ml) read?
**A.** 134 pg/mL

**Q.** What about the “IFN-γ production by clone 37” value (peptide concentration 3 ng/ml) of the same substance?
**A.** 139 pg/mL

**Q.** And the “IFN-γ production by clone 37” value (peptide concentration 10 ng/ml)?
**A.** 620 pg/mL

**Q.** And the “IFN-γ production by clone 37” value (peptide concentration 30 ng/ml)?
**A.** 2523 pg/mL

**Q.** And the “IFN-γ production by clone 37” value [1]?
**A.** >4000 pg/mL

**Q.** And the “IFN-γ production by clone 37” value [2]?
**A.** >4000 pg/mL

**Q.** What about the “IFN-γ production by clone 37” value [3] of the same substance?
**A.** >4000 pg/mL

**Q.** Which “recognition of short peptide by clone 37” value (conclusion from Table IV) does the source give for AELVHFLLLKYRAR (listed as Homo sapiens) here?
**A.** well recognized

**Q.** What about the “IFN-γ production by clone 37” value (peptide concentration 1 ng/ml) of the same substance?
**A.** 151 pg/mL

**Q.** And the “IFN-γ production by clone 37” value (peptide concentration 3 ng/ml)?
**A.** 272 pg/mL

**Q.** And the “IFN-γ production by clone 37” value (peptide concentration 10 ng/ml)?
**A.** 802 pg/mL

**Q.** And the “IFN-γ production by clone 37” value (peptide concentration 30 ng/ml)?
**A.** 2862 pg/mL

**Q.** What about the “IFN-γ production by clone 37” value [1] of the same substance?
**A.** >4000 pg/mL

**Q.** What about the “IFN-γ production by clone 37” value [2] of the same substance?
**A.** >4000 pg/mL

**Q.** And the “IFN-γ production by clone 37” value [3]?
**A.** >4000 pg/mL

**Q.** Which results are given for “AELVHFLLLKYRARE (listed as Homo sapiens)”?
**A.** IFN-γ production by clone 37 (peptide concentration 1 ng/ml): 38 pg/mL; IFN-γ production by clone 37 (peptide concentration 3 ng/ml): 230 pg/mL; IFN-γ production by clone 37 (peptide concentration 10 ng/ml): 235 pg/mL; IFN-γ production by clone 37 (peptide concentration 30 ng/ml): 1473 pg/mL; IFN-γ production by clone 37 [1]: 3837 pg/mL; IFN-γ production by clone 37 [2]: >4000 pg/mL; IFN-γ production by clone 37 [3]: >4000 pg/mL

**Q.** With “ELVHFLLLKYRA (listed as Homo sapiens) [MAGE-A3115-126]” as the substance, how does the “IFN-γ production by clone B6/37, truncated peptides” value read?
**A.** induced significant production

**Q.** Which “IFN-γ production by clone 37” value (peptide concentration 1 ng/ml) does the source give for ELVHFLLLKYRAR (listed as Homo sapiens) here?
**A.** 47 pg/mL

**Q.** What about the “IFN-γ production by clone 37” value (peptide concentration 3 ng/ml) of the same substance?
**A.** 192 pg/mL

**Q.** What about the “IFN-γ production by clone 37” value (peptide concentration 10 ng/ml) of the same substance?
**A.** 333 pg/mL

**Q.** And the “IFN-γ production by clone 37” value (peptide concentration 30 ng/ml)?
**A.** 1899 pg/mL

**Q.** What about the “IFN-γ production by clone 37” value [1] of the same substance?
**A.** 3633 pg/mL

**Q.** What about the “IFN-γ production by clone 37” value [2] of the same substance?
**A.** >4000 pg/mL

**Q.** And the “IFN-γ production by clone 37” value [3]?
**A.** >4000 pg/mL

**Q.** With ELVHFLLLKYRARE (listed as Homo sapiens) as the substance, how does the “IFN-γ production by clone 37” value (peptide concentration 1 ng/ml) read?
**A.** 25 pg/mL

**Q.** What about the “IFN-γ production by clone 37” value (peptide concentration 3 ng/ml) of the same substance?
**A.** 160 pg/mL

**Q.** What about the “IFN-γ production by clone 37” value (peptide concentration 10 ng/ml) of the same substance?
**A.** 166 pg/mL

**Q.** What about the “IFN-γ production by clone 37” value (peptide concentration 30 ng/ml) of the same substance?
**A.** 1087 pg/mL

**Q.** What about the “IFN-γ production by clone 37” value [1] of the same substance?
**A.** 3095 pg/mL

**Q.** What about the “IFN-γ production by clone 37” value [2] of the same substance?
**A.** >4000 pg/mL

**Q.** And the “IFN-γ production by clone 37” value [3]?
**A.** >4000 pg/mL

**Q.** For “MAGE-A3116-126: shortened MAGE-A3 peptide, residues 116-126 (LVHFLLLKYRA; listed as Homo sapiens)”, which “IFN-γ production by clone B6/37, truncated peptides” value is on record?
**A.** reduced amounts

**Q.** Which “IFN-γ production by clone B6/37, truncated peptides” value does the source give for “MAGE-A3118-126: shortened MAGE-A3 peptide, residues 118-126” here?
**A.** did not induce the production of significant amounts

**Q.** Which “IFN-γ production by clone 37” value (peptide concentration 1 ng/ml) does the source give for VAELVHFLLLKYRA (listed as Homo sapiens) here?
**A.** 7 pg/mL

**Q.** And the “IFN-γ production by clone 37” value (peptide concentration 3 ng/ml)?
**A.** 179 pg/mL

**Q.** What about the “IFN-γ production by clone 37” value (peptide concentration 10 ng/ml) of the same substance?
**A.** 87 pg/mL

**Q.** What about the “IFN-γ production by clone 37” value (peptide concentration 30 ng/ml) of the same substance?
**A.** 648 pg/mL

**Q.** What about the “IFN-γ production by clone 37” value [1] of the same substance?
**A.** 2534 pg/mL

**Q.** What about the “IFN-γ production by clone 37” value [2] of the same substance?
**A.** >4000 pg/mL

**Q.** What about the “IFN-γ production by clone 37” value [3] of the same substance?
**A.** >4000 pg/mL

**Q.** How did the “IFN-γ production by clone 37” value (peptide concentration 1 ng/ml) turn out when “VAELVHFLLLKYRAR (listed as Homo sapiens)” was run?
**A.** 146 pg/mL

**Q.** And the “IFN-γ production by clone 37” value (peptide concentration 3 ng/ml)?
**A.** 262 pg/mL

**Q.** What about the “IFN-γ production by clone 37” value (peptide concentration 10 ng/ml) of the same substance?
**A.** 779 pg/mL

**Q.** What about the “IFN-γ production by clone 37” value (peptide concentration 30 ng/ml) of the same substance?
**A.** 2963 pg/mL

**Q.** What about the “IFN-γ production by clone 37” value [1] of the same substance?
**A.** >4000 pg/mL

**Q.** What about the “IFN-γ production by clone 37” value [2] of the same substance?
**A.** >4000 pg/mL

**Q.** What about the “IFN-γ production by clone 37” value [3] of the same substance?
**A.** >4000 pg/mL

**Q.** What does the source list for “VAELVHFLLLKYRARE (listed as Homo sapiens)”?
**A.** IFN-γ production by clone 37 (peptide concentration 1 ng/ml): 30 pg/mL; IFN-γ production by clone 37 (peptide concentration 3 ng/ml): 300 pg/mL; IFN-γ production by clone 37 (peptide concentration 10 ng/ml): 376 pg/mL; IFN-γ production by clone 37 (peptide concentration 30 ng/ml): 1647 pg/mL; IFN-γ production by clone 37 [1]: >4000 pg/mL; IFN-γ production by clone 37 [2]: >4000 pg/mL; IFN-γ production by clone 37 [3]: >4000 pg/mL

**Q.** How did the “IFN-γ production by clone B6/37, truncated peptides” value turn out when “VHFLLLKYRA (listed as Homo sapiens) [MAGE-A3117-126]” was run?
**A.** reduced amounts
